How the values were obtained:
[1] = tested on: HepG2 (liver) cancer cells; assay: In vitro cytotoxicity assessment (MTT), HepG2; format: cell-based, human; details: for IC50: Homo sapiens, HepG2, 48 h, MTT, mean of three experiments ± SD, NA: not active; for SI (selectivity index) HepG2: IC50 in WI38 normal cells / IC50 in HepG2
From the text: (§1) Four cancer cell lines were used in this study viz ovarian (A-2780), colon (HT-29), breast (MCF-7), and liver (HepG2) cancer cells. They were provided by the National Institute of Cancer, Cairo University (Cairo, Egypt). The selection of those cancer cells was encouraged by the stated anticancer activity of a number 5-Fluorouracil hybrids against the mentioned cancer cells and based on the reported cytotoxic activity of a large range of bioactive cores containing sulfonamide moiety.
(§2) Cells were seeded in 96 well plates at a density of 2 × 10^4 and incubated to allow the attachment for 24 h. Then the cells were treated at different concentrations (2.5–10 μM) with 5-FU as a positive control or the synthesized compounds for 48h. 0.1% DMSO was used as a negative control. Afterward, cells were washed using PBS and the viability of cells was evaluated utilizing in vitro toxicology assay kit, MTT Based (Stock No. TOX-1, Sigma-Aldrich, Saint Louis, Missouri, USA), per the manufacturer’s instructions. The plates were read at 570 nm. IC50 was calculated using a sigmoidal dose-response curve (GraphPad Prism version 5 for Windows (GraphPad Inc., USA)). Data are presented as the mean of the three individual experiments. The degree of selectivity of the active target compounds relative to WI38 normal cell lines is expressed as previously described. Selectivity index (SI) = IC50 of a pure compound in a normal cell line/IC50 of the same pure compound in a cancerous cell line.

[2] = tested on: A-2780 (ovarian) cancer cells; assay: In vitro cytotoxicity assessment (MTT), A-2780; format: cell-based, human; details: for IC50: Homo sapiens, A2780, 48 h, MTT, mean of three experiments ± SD, NA: not active; for SI (selectivity index) A-2780: IC50 in WI38 normal cells / IC50 in A-2780
From the text: as §1, §2

[3] = tested on: A-2780, HT-29, MCF-7, and HepG2 cancer cell lines; assay: Cytotoxic screening, statements for the whole panel of four cancer cell lines; format: cell-based, human; details: A-2780, HT-29, MCF-7, HepG2
From the text: as §1, §2

[4] = tested on: HT-29 (colon) cancer cells; assay: In vitro cytotoxicity assessment (MTT), HT-29; format: cell-based, human; details: for IC50: Homo sapiens, HT-29, 48 h, MTT, mean of three experiments ± SD, NA: not active; for SI (selectivity index) HT-29: IC50 in WI38 normal cells / IC50 in HT-29
From the text: as §1, §2

[5] = tested on: MCF-7 (breast) cancer cells; assay: In vitro cytotoxicity assessment (MTT), MCF-7; format: cell-based, human; details: for IC50: Homo sapiens, MCF7, 48 h, MTT, mean of three experiments ± SD, NA: not active; for SI (selectivity index) MCF-7: IC50 in WI38 normal cells / IC50 in MCF-7
From the text: as §1, §2

[6] = target: T1, CDK2/CyclinA2 (Homo sapiens, UniProt P24941); assay: In vitro inhibitory screening of CDK2 (CDK2 Assay kit, Kinase-Glo MAX); format: biochemical; details: CDK2/CyclinA2, 30 °C 45 min; mean of three experiments ± SD; read-out: CDK2 Protein Kinase (IC50 in µM)
T1 construct: purchased #79599
Description: To measure CDK2/CyclinA2 activity, the CDK2 Assay kit #79599 was used for screening and profiling applications, together with Kinase-Glo® MAX (Promega#V6071) as a detection reagent. […] Briefly, 25 μL of the master mixture containing 6 μL Kinase assay buffer + 1 μL ATP + 5 μL CDK substrate peptide + 13 μL distilled water were added to each well. Later, 5 µL of inhibitor buffer only or diluted compound were added to the blank or test inhibitor wells, respectively. Then, 20μL of Kinase assay buffer was added to blank wells. The reaction was started by the addition of 20 μL of CDK2/CyclinA2 enzyme to the wells of the test inhibitor. The final volume was 50 µL in all of the reactions. Incubation was at 30 °C for 45 min for all the enzymatic reactions. Finally, to each well, 50 μL of Kinase-Glo MAX reagent was added. The plate was incubated for 15 min at room temperature then, the luminescence signal was measured using a Bio Tek Synergy 2 microplate reader. Experiments were performed in triplicates.

[7] = tested on: A-2780 cells; assay: Annexin V-FITC/PI apoptosis assay, A-2780; format: cell-based, human; details: 6e at its IC50, 48 h
Description: (§3) For the apoptosis assay, the BioVision annexin V-FITC apoptosis detection kit (Cat No.: K101; BioVision, Inc., Milpitas, CA, USA) was used, per the manufacturer’s instructions. […] The cells were resuspended in 500 μL of Annexin V–binding buffer, followed by the addition of 5μL of Annexin V–FITC, then incubated in the dark for 10 min at room temperature. Analysis was performed using a FACS Calibur flow cytometer (BD Biosciences, San Jose, CA, USA), using […] software (Becton Dickinson Immunocytometry Systems, San Jose, CA, USA).

[8] = tested on: p27; assay: Western blot analysis for p27 in MCF-7 cells; format: cell-based, human; details: 6e at IC50 (1.67 μM), 48 h, relative to actin
Description: (§4) Whole-cell protein lysates were prepared according to a standard protocol using RIPA buffer (Cell Signaling, Danvers, MA, USA). Total protein concentrations were determined in the supernatant using the Bradford method. Equal amounts (20 µg) of protein samples were mixed and boiled with SDS Loading buffer for 10 min, allowed to cool on ice and then loaded into SDS-polyacrylamide gel and separated by Cleaver electrophoresis unit (Cleaver, UK), transferred onto polyvinylidene fluoride (PVDF) membranes (BioRad, USA) for 30 min using a Semi-dry Electroblotter (Biorad, USA) at 2.5 A and 25 V for 30 min. Membranes were blocked with 5% non-fat dry milk in TBS-T and incubated overnight with the primary antibody: anti-p21, anti-p27 antibody, or anti-β-actin antibody (1:1000; Cell Signaling Technology, Inc., Danvers, MA, USA), then incubated with secondary HRP-linked antibody (1:5000). Development was done using Pierce ECL2 chemiluminescent and chemifluorescent substrate (Perkin Elmer, Waltham, MA, USA). The chemiluminescent signals were captured using a CCD camera-based imager (Chemi Doc imager, Biorad, USA), and the bands’ intensities were then measured relative to actin by ImageLab (Biorad).

[9] = tested on: MCF-7 cells; assay: Cell cycle analysis (PI flow cytometry), MCF-7; format: cell-based, human; details: IC50 of 6e, 48 h
Description: (§5) To evaluate cancer cells distribution through different cell cycle stages, the DNA content of propidium iodide-stained nuclei was assessed by flow cytometry as depicted earlier. […] Then, the cells were washed twice with ice-cold phosphate-buffered saline (PBS) and gathered by centrifugation. The cell pellets were mixed with 75% ethanol (−20 °C). Afterward, cells were stained with the propidium iodide flow cytometry kit (ab139418, Abcam, Cambridge, MA, USA), according to the manufacturer’s instructions. Cell cycle distribution was established by FACS Calibur flow cytometer (BD Biosciences, San Jose, CA, USA). Cell cycle distribution was measured using […] software (Becton Dickinson Immunocytometry Systems, San Jose, CA, USA).

[10] = tested on: HepG2 cells; assay: Cell cycle analysis (PI flow cytometry), HepG2; format: cell-based, human; details: IC50 of 6e, 48 h
Description: as §5

[11] = tested on: MCF-7 cells; assay: Annexin V-FITC/PI apoptosis assay, MCF-7; format: cell-based, human; details: 6e at its IC50, 48 h
Description: as §3

[12] = tested on: p21; assay: Western blot analysis for p21 in MCF-7 cells; format: cell-based, human; details: 6e at IC50 (1.67 μM), 48 h, relative to actin
Description: as §4

[13] = tested on: A-2780 cells; assay: Cell cycle analysis (PI flow cytometry), A-2780; format: cell-based, human; details: IC50 of 6e, 48 h
Description: as §5

[14] = tested on: HT-29 cells; assay: Annexin V-FITC/PI apoptosis assay, HT-29; format: cell-based, human; details: 6e at its IC50, 48 h
Description: as §3

[15] = tested on: WI38 normal cells; assay: In vitro cytotoxicity assessment (MTT), normal cells; format: cell-based; details: WI-38; normal human cell line WI38, MTT
Description: as §2, with “Then the cells were treated at different concentrations (2.5–10 μM) with 5-FU as a positive control or the synthesized compounds for 48h.” left out

[16] = tested on: HepG2 cells; assay: Annexin V-FITC/PI apoptosis assay, HepG2; format: cell-based, human; details: 6e at its IC50, 48 h
Description: as §3

[17] = tested on: HT-29 cells; assay: Cell cycle analysis (PI flow cytometry), HT-29; format: cell-based, human; details: IC50 of 6e, 48 h
Description: as §5

Cc1[nH]c(=S)[nH]c(=O)c1S(=O)(=O)Cl [Compound 2, 6-Methyl-4-Oxo-2-Thioxo-1,2,3,4-Tetrahydropyrimidine-5-Sulfonyl Chloride]
IC50 [1]: 17 ± 0.93 µM | IC50 [2]: 21.4 ± 2.51 µM | anticancer activity against the four cancer cell lines, in words [3]: low anticancer activity | IC50 [4]: 18 ± 1.04 µM | melting point: 324 to 326 °C | IC50 [5]: 16.5 ± 1.4 µM

Cc1[nH]c(=S)[nH]c(=O)c1S(=O)(=O)C1C(=O)NC(=O)NC1=O [Compound 3, 5-[(6-Methyl-4-Oxo-2-Thioxo-1,2,3,4-Tetrahydropyrimidin-5-Yl)sulfonyl]pyrimidine-2,4,6(1H,3H,5H)-Trione]
anticancer activity against the four cancer cell lines, in words [3]: low or no anticancer activity | IC50 [4]: 13 ± 2 µM | melting point: 344 to 346 °C | IC50 [5]: 14.9 ± 2.89 µM

Cc1[nH]c(=S)[nH]c(=O)c1S(=O)(=O)C1C(=O)CC(C)(C)CC1=O [Compound 4, 5,5-Dimethyl-2-[(6-Methyl-4-Oxo-2-Thioxo-1,2,3,4-Tetrahydropyrimidin-5-Yl)sulfonyl]cyclohexane-1,3-Dione]
anticancer activity against the four cancer cell lines, in words [3]: low or no anticancer activity | IC50 [4]: 14.2 ± 2.85 µM | melting point: 340 to 342 °C | IC50 [5]: 10.8 ± 1.6 µM

Cc1[nH]c(=S)[nH]c(=O)c1S(=O)(=O)C1Cc2ccccc2C1=O (stereo not shown) [Compound 5, 6-Methyl-5-(1-Oxo-2,3-Dihydro-1H-Inden-2-Ylsulfonyl)-2-Thioxo-2,3-Dihydropyrimidin-4(1H)-One]
anticancer activity against the four cancer cell lines, in words [3]: low or no anticancer activity | IC50 [4]: 11.7 ± 1.96 µM | melting point: 348 to 350 °C | IC50 [5]: 17.3 ± 2.35 µM

Cc1[nH]c(=S)[nH]c(=O)c1S(=O)(=O)Nc1cccc(Cl)c1Cl [Compound 6e, N-(2,3-Dichlorophenyl)-6-Methyl-4-Oxo-2-Thioxo-1,2,3,4-Tetrahydropyrimidine-5-Sulfonamide]
IC50 [6]: 0.407 ± 0.021 µM | % Early Apoptosis [7]: 2.38% | % Late Apoptosis [7]: 22.02% | % Necrosis [7]: 9.41% | % Total [7]: 33.81% | protein expression level of p27, increase compared to control [8]: ~2.2 fold | IC50 [1]: 2.02 ± 0.85 µM | SI (selectivity index) HepG2 [1]: 29.80 | phase of cell growth arrest [9]: S phase | phase of cell growth arrest [10]: G2/M phase | IC50 [2]: 2.52 ± 0.47 µM | SI (selectivity index) A-2780 [2]: 23.91 | % Early Apoptosis [11]: 3.82% | % Late Apoptosis [11]: 23.71% | % Necrosis [11]: 11.75% | % Total [11]: 39.28% | IC50 [4]: 1.75 ± 0.4 µM | SI (selectivity index) HT-29 [4]: 34.40 | protein expression level of p21, increase compared to control [12]: about 2.6 fold | phase of cell growth arrest [13]: G1/S phase | % Early Apoptosis [14]: 1.61% | % Late Apoptosis [14]: 26.24% | % Necrosis [14]: 14.51% | % Total [14]: 42.36% | IC50 [15]: 60.2 ± 1.77 µM | melting point: 326 to 328 °C | IC50 [5]: 1.67 ± 0.31 µM | SI (selectivity index) MCF-7 [5]: 36.05 | % Early Apoptosis [16]: 0.84% | % Late Apoptosis [16]: 18.97% | % Necrosis [16]: 8.81% | % Total [16]: 28.62% | phase of cell growth arrest [17]: S phase

Cc1[nH]c(=S)[nH]c(=O)c1S(=O)(=O)Nc1cccc(C(=O)C=Cc2ccc([N+](=O)[O-])cc2)c1 [Compound 7b, 6-Methyl-N-(3-(3-(4-Nitrophenyl)acryloyl)phenyl)-4-Oxo-2-Thioxo-1,2,3,4-Tetrahydropyrimidine-5-Sulfonamide]
IC50 [6]: 0.81 ± 0.026 µM | IC50 [1]: 12.4 ± 1.82 µM | SI (selectivity index) HepG2 [1]: 6.43 | IC50 [2]: 11.1 ± 1.41 µM | SI (selectivity index) A-2780 [2]: 7.22 | IC50 [4]: 2.84 ± 0.78 µM | SI (selectivity index) HT-29 [4]: 28.14 | IC50 [15]: 79.9 ± 2.56 µM | melting point: 318 to 320 °C | IC50 [5]: 6.11 ± 0.5 µM | SI (selectivity index) MCF-7 [5]: 13.08

Cc1[nH]c(=S)[nH]c(=O)c1S(=O)(=O)Nc1cccc(C(=O)C=Cc2ccc(Br)cc2)c1 [Compound 7c, N-(3-(3-(4-Bromophenyl)acryloyl)phenyl)-6-Methyl-4-Oxo-2-Thioxo-1,2,3,4-Tetrahydro Pyrimidine-5-Sulfonamide]
IC50 [6]: 8.2 ± 0.486 µM | IC50 [1]: 8.25 ± 0.68 µM | SI (selectivity index) HepG2 [1]: 7.60 | IC50 [2]: 6.1 ± 0.54 µM | SI (selectivity index) A-2780 [2]: 10.28 | IC50 [4]: 8.14 ± 1.95 µM | SI (selectivity index) HT-29 [4]: 7.71 | IC50 [15]: 62.7 ± 1.93 µM | melting point: 335 to 337 °C | IC50 [5]: 11.7 ± 2.07 µM | SI (selectivity index) MCF-7 [5]: 5.38

From publication PMC8584424, “Synthesis of Novel 2-Thiouracil-5-Sulfonamide Derivatives as Potent Inducers of Cell Cycle Arrest and CDK2A Inhibition Supported by Molecular Docking” (International Journal of Molecular Sciences, 2021)
